According to patent US9593149B2, “Amylin and calcitonin receptor agonist” (Novo Nordisk A/S, priority 2014, dated 2017):
Converted amounts (≈) assume the structure as drawn. Numbered stars: 1 amine (or outer) side, 2 acyl side, 3 side chain; on linkers, the order of the positions; unused ones are H or OH. Peptide text beside a SMILES is read from it. * marks the point of attachment. C20 diacid = O=C(O)CCCCCCCCCCCCCCCCCCC(=O)*; C18 diacid = O=C(O)CCCCCCCCCCCCCCCCC(=O)*; γGlu = O=C(O)[C@H](CCC(=O)[*:2])N[*:1]

Experiments:
[1] = Assay (IV) determination of solubility; assay type: physicochemical
Experimental: Assay (IV)—Determination of Solubility
The mimylin peptide was dissolved in water at ˜500 nmol/ml and mixed 1:1 with a series of buffers (100 mM glycylglycine pH 3.0, 100 mM glycylglycine pH 4.0, 100 mM glycylglycine pH 5.0, 100 mM bistrispropane pH 6.0, 100 mM bistrispropane pH 6.5, 100 mM bistrispropane pH 7.0, 100 mM bistrispropane pH 7.5, 100 mM bistrispropane pH 8.0).

[2] = Assay (IX) pK, T½ in mini-pig; assay type: in vivo, Göttingen mini-pigs; conditions: i.v.
Experimental: Assay (IX)—pK—Determination of T½ in Mini-Pig
Pharmacokinetic (PK) studies in Göttingen mini-pigs were conducted in order to determine the T½ of the mimylin compound according to the Examples as indicated after i.v. administration.
T½ values of the amylin analogues of the invention is determined by pharmacokinetic studies in female Göttingen mini-pigs from Ellegaard Göttingen Minipigs ApS and the principles of laboratory animal care are followed.
An acclimatisation period of approximately 6-10 days was allowed before the animals entered the study. At start of the acclimatisation period the mini-pigs were about 5 to 12 months old and in the weight range of 15-35 kg. The mini-pigs had two central venous catheters inserted which were used for blood sampling.
The studies were conducted in an animal room which was illuminated to give a cycle of approximately 12 hours light and 12 hours darkness. The animals were housed individually. The animals had free access to domestic quality drinking water during the study, and no food restrictions applied for PK studies. The animals were weighed on arrival and on the days of dosing.
In the present studies the test substances were administered intravenously in approximately 5 nmol/kg dose. The animals received a single intravenous injection in one central venous catheter and blood sampling was performed from the other catheter, where possible. Each test substance was given to typically three but in some cases two or four animals.
A full plasma concentration-time profile, employing 12-16 sampling points, was obtained from each animal. In example blood samples were collected according to the following schedule:
After Intravenous Administration:
Pre-dose (0), 0.5, 1, 2, 4, 6, 8, 12, 24, 48, 72, 96, 120, 168 and 240 hours after injection. In some cases also additional blood samples up to 288 hours post injection were taken.
At each sampling time, 0.5 to 2 ml of blood was drawn from each animal. The blood samples were taken via the central venous catheter.
The 0.8 mL blood samples were collected into EDTA test tubes (8 mM EDTA). Blood samples were kept on ice for max 20 min. before centrifugation. Plasma was separated using centrifugation (i.e. at 4° C., 10 min., 2000G) and was immediately transferred to Micronic tubes on dry ice. Approximately 200 μl plasma was transferred to each Micronic tube. The plasma was stored at −20° C. until assayed. The plasma samples were assayed for the content of compound using LCMS.
The plasma concentration-time profiles were analysed by a non-compartmental pharmacokinetic analysis (NCA) using Phoenix WinNonlin 6.3 (Pharsight Inc., Mountain View, Calif., USA). NCA was performed using the individual plasma concentration-time profiles from each animal. T½ is the terminal half-life=In2/λz and was determined from λz, the first order rate constant associated with the terminal (log-linear) portion of the curve, estimated by linear regression of time vs. log concentration.
MS-Method for Amylin and Mimylin Quantification
40 μl plasma is diluted with 120 μl 66.67% EtOH+1% HCOOH and mixed. Centrifuged for 20 min. at 13000 rpm, 4° C. The supernatant is analyzed by an LC-MS method on a Sciex API 3000 and quantitated with a standard made up in plasma

rat calcitonin receptor = target: T1, rat calcitonin receptor (Rattus norvegicus, UniProt P32214); assay: Assay (VIII) binding to the rat calcitonin receptor; conditions: membranes; read-out: rCT-R binding IC50
T1 construct: expressed in transfected cells; host or cells: BHK tk'ts 13 (transient, FuGENE 6)
T1 sequence (P32214 25-479 isoform P32214-2 limits assumed): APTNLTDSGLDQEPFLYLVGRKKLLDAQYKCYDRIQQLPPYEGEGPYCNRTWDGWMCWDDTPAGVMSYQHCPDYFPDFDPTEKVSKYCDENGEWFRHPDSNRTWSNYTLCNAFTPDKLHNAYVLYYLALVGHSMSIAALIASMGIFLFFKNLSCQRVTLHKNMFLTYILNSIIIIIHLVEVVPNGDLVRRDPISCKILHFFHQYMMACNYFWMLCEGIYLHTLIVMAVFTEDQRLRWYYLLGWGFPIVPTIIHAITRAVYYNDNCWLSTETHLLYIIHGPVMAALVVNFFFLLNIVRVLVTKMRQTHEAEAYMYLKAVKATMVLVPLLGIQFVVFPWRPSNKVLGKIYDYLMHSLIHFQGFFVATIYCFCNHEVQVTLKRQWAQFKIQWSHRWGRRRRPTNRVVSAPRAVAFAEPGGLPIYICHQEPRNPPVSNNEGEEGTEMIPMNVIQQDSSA
Summary of the method: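 Affinity given as IC50 from a one-site competition fit of bound radioactivity, counted by scintillation after cold HBSS washes and NaOH/SDS lysis. Membranes came from BHK tk'ts 13 cells transiently expressing the rat receptor; other conditions followed the human calcitonin receptor protocol.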

Solubility ([1]; pH 3.0)	Solubility ([1]; pH 4.0)	Solubility ([1]; pH 5.0)	Solubility ([1]; pH 6.0)	Solubility ([1]; pH 6.5)	Solubility ([1]; pH 7.0)	Solubility ([1]; pH 7.5)	Solubility ([1]; pH 8.0)	PK mini pig iv T½ [2] [h]	IC50 (rat calcitonin receptor) [nM]	solubility at 18 h ([1]; pH 5.0) [µM]	SMILES
≧200 μM	≧200 μM	≧200 μM	≧200 μM	≧200 μM	≧200 μM	≧200 μM	≧200 μM	108	–	–	CC(C)C[C@H](NC(=O)[C@H](C)NC(=O)[C@H](C)NC(=O)[C@@H](NC(=O)[C@H](CO)NC(=O)[C@H](CC(C)C)NC(=O)[C@H](CCC(=O)O)NC(=O)[C@H](CO)NC(=O)[C@H](C)NC(=O)[C@H](CCC(=O)O)NC(=O)CCCCCCCCCCCCCCCCCCC(=O)O)[C@@H](C)O)C(=O)NCC(=O)N[C@@H](CCCNC(=N)N)C(=O)N[C@@H](CC(C)C)C(=O)N[C@@H](CO)C(=O)N[C@@H](C)C(=O)N[C@@H](CCC(=O)O)C(=O)N[C@@H](CC(C)C)C(=O)N[C@@H](Cc1cnc[nH]1)C(=O)N[C@@H](CCC(=O)O)C(=O)N[C@@H](CC(C)C)C(=O)N[C@@H](C)C(=O)N[C@H](C(=O)N[C@@H](CC(C)C)C(=O)N1CCC[C@H]1C(=O)N[C@@H](CCCNC(=N)N)C(=O)N[C@H](C(=O)N[C@@H](CCC(=O)O)C(=O)N[C@H](C(=O)NCC(=O)N[C@@H](CO)C(=O)NCC(=O)N[C@@H](CO)C(=O)N1CCC[C@H]1C(N)=O)[C@@H](C)O)[C@@H](C)O)[C@@H](C)O [compound 22, [N-terminal(C20 diacid), 30S, 31G]mimylin] ({C20 diacid}-EASELSTAALGRLSAELHELATLPRTETGSGSP-NH2)
≧200 μM	≧200 μM	≧200 μM	≧200 μM	≧200 μM	≧200 μM	≧200 μM	≧200 μM	88	0.202	–	CC(C)C[C@H](NC(=O)[C@H](C)NC(=O)[C@H](C)NC(=O)[C@@H](NC(=O)[C@H](CO)NC(=O)[C@H](CC(C)C)NC(=O)[C@H](CCC(=O)O)NC(=O)[C@H](CO)NC(=O)[C@H](C)NC(=O)CC[C@H](NC(=O)CCCCCCCCCCCCCCCCCCC(=O)O)C(=O)O)[C@@H](C)O)C(=O)NCC(=O)N[C@@H](CCCNC(=N)N)C(=O)N[C@@H](CC(C)C)C(=O)N[C@@H](CO)C(=O)N[C@@H](C)C(=O)N[C@@H](CCC(=O)O)C(=O)N[C@@H](CC(C)C)C(=O)N[C@@H](Cc1cnc[nH]1)C(=O)N[C@@H](CCC(=O)O)C(=O)N[C@@H](CC(C)C)C(=O)N[C@@H](C)C(=O)N[C@H](C(=O)N[C@@H](Cc1ccc(O)cc1)C(=O)N1CCC[C@H]1C(=O)N[C@@H](CCCNC(=N)N)C(=O)N[C@H](C(=O)N[C@@H](CCC(=O)O)C(=O)N[C@H](C(=O)NCC(=O)N[C@@H](CO)C(=O)NCC(=O)N[C@@H](CO)C(=O)N1CCC[C@H]1C(N)=O)[C@@H](C)O)[C@@H](C)O)[C@@H](C)O [compound 56, [N-terminal(C20 diacid-gGlu), des1, 23Y, 30S, 31G]mimylin] ({C20 diacid-γGlu}-ASELSTAALGRLSAELHELATYPRTETGSGSP-NH2)
≧200 μM	≧200 μM	–	≧200 μM	≧200 μM	≧200 μM	≧200 μM	≧200 μM	32	0.013	149 (≈ 569 µg/mL)	CC(C)C[C@H](NC(=O)CNC(=O)[C@H](CO)NC(=O)[C@H](C)NC(=O)CC[C@H](NC(=O)CCCCCCCCCCCCCCCCC(=O)O)C(=O)O)C(=O)N[C@@H](CO)C(=O)N[C@H](C(=O)N[C@@H](C)C(=O)N[C@@H](C)C(=O)N[C@@H](CC(C)C)C(=O)NCC(=O)N[C@@H](CCCNC(=N)N)C(=O)N[C@@H](CC(C)C)C(=O)N[C@@H](CO)C(=O)N[C@@H](CCC(N)=O)C(=O)N[C@@H](CCC(=O)O)C(=O)N[C@@H](CC(C)C)C(=O)N[C@@H](Cc1cnc[nH]1)C(=O)N[C@@H](CCC(=O)O)C(=O)N[C@@H](CC(C)C)C(=O)N[C@@H](CCC(N)=O)C(=O)N[C@H](C(=O)N[C@@H](Cc1ccc(O)cc1)C(=O)N1CCC[C@H]1C(=O)N[C@@H](CCCNC(=N)N)C(=O)N[C@H](C(=O)N[C@@H](CCC(=O)O)C(=O)N[C@H](C(=O)NCC(=O)N[C@@H](CO)C(=O)NCC(=O)N[C@H](C(=O)N[C@@H](Cc1ccc(O)cc1)C(N)=O)[C@@H](C)O)[C@@H](C)O)[C@@H](C)O)[C@@H](C)O)[C@@H](C)O [compound 110, [N-terminal(C18 diacid-gGlu), des1, 4G, 15Q, 21Q, 23Y, 30S, 31G, 32T, 33Y]mimylin] ({C18 diacid-γGlu}-ASGLSTAALGRLSQELHELQTYPRTETGSGTY-NH2)
≧200 μM	≧200 μM	–	≧200 μM	≧200 μM	≧200 μM	≧200 μM	≧200 μM	87	–	32 (≈ 129 µg/mL)	CC(C)C[C@H](NC(=O)[C@H](CCCNC(=N)N)NC(=O)CNC(=O)[C@H](CC(C)C)NC(=O)[C@@H](NC(=O)[C@H](C)NC(=O)[C@@H](NC(=O)[C@H](CO)NC(=O)[C@H](CC(C)C)NC(=O)[C@H](CCC(N)=O)NC(=O)[C@H](CO)NC(=O)[C@H](C)NC(=O)CC[C@H](NC(=O)CCCCCCCCCCCCCCCCCCC(=O)O)C(=O)O)[C@@H](C)O)C(C)C)C(=O)N[C@@H](CO)C(=O)N[C@@H](CCC(N)=O)C(=O)N[C@@H](CCC(=O)O)C(=O)N[C@@H](CC(C)C)C(=O)N[C@@H](Cc1cnc[nH]1)C(=O)N[C@@H](CCC(=O)O)C(=O)N[C@@H](CC(C)C)C(=O)N[C@@H](CCC(N)=O)C(=O)N[C@H](C(=O)N[C@@H](Cc1ccc(O)cc1)C(=O)N1CCC[C@H]1C(=O)N[C@@H](CCCNC(=N)N)C(=O)N[C@H](C(=O)N[C@@H](CCC(=O)O)C(=O)N[C@H](C(=O)NCC(=O)N[C@@H](CO)C(=O)N[C@@H](CCC(N)=O)C(=O)N[C@H](C(=O)N[C@@H](Cc1ccc(O)cc1)C(N)=O)[C@@H](C)O)[C@@H](C)O)[C@@H](C)O)[C@@H](C)O [compound 116, [N-terminal(C20 diacid-gGlu), des1, 4Q, 9V, 15Q, 21Q, 23Y, 30S, 31Q, 32T, 33Y]mimylin] ({C20 diacid-γGlu}-ASQLSTAVLGRLSQELHELQTYPRTETGSQTY-NH2)
